Test results as given in ChEMBL document CHEMBL4819138, “Promising anti-SARS-CoV-2 drugs by effective dual targeting against the viral and host proteases” (Bioorg Med Chem Lett, 2021).

Tests used:
[1] = target: Replicase polyprotein 1ab (Severe acute respiratory syndrome coronavirus 2) (UniProt P0DTD1); experiment: Inhibition of SARS-CoV-2 papain-like protease at 100 microg/ml relative to control; conditions: dose 100.0 µg/ml
[2] = system: Fibroblast; experiment: Cytotoxicity against human fibroblasts cells assessed as cell growth inhibition by MTT assay; type: cell-based
[3] = system: SARS-CoV-2; experiment: Antiviral activity against SARS-CoV-2 NRC-03-nhCoV strain infected in Vero E6 cells; type: functional, organism-based; conditions: Severe acute respiratory syndrome coronavirus 2, NRC-03-nhCoV, Vero C1008
[4] = target: Replicase polyprotein 1ab (Severe acute respiratory syndrome coronavirus 2) (UniProt P0DTD1); experiment: Inhibition of SARS-CoV-2 main protease at 100 microg/ml relative to control; conditions: dose 100.0 µg/ml

SMILES	inhibition [1] [%]	IC50 [2] [nM]	IC50 [3] [nM]	inhibition [4] [%]
COc1ccc(/C=C\C(=O)NC(=S)Nc2ccc(S(=O)(=O)NC(N)=O)cc2)cc1OC	> 40			
COc1cc(C(NC2=NC(=O)C(CC(=O)Nc3ccc(C(=O)O)cc3)S2)c2c(O)[nH]c(=O)[nH]c2=O)ccc1O (configuration not stated)	56.4	1670	770	31
CCOC(=O)C(Cc1c[nH]c2ccccc12)NC(=O)CCC(=O)Nc1ccc(S(N)(=O)=O)cc1 (configuration not stated)	> 40			
O=C(CSc1nnc2c(n1)[nH]c1ccccc12)Nc1cccc(S(=O)(=O)N2CCOCC2)c1	> 40			
N=C(N/N=C/c1ccccc1O)c1nonc1NCNc1nonc1C(=N)N/N=C/c1ccccc1O		410	110	
COc1cc(CC(C)NCc2cc(NC(=O)c3ccccn3)cc(C(=O)N(C)C)c2)ccc1O (configuration not stated)	> 40			
O=C(CSc1nnc(NC2CC2)s1)Nc1ccccc1C(=O)Nc1ccc2c(c1)OCO2	> 40			26.4
